From patent US7160888B2, “[1,8]naphthyridin-2-ones and related compounds for the treatment of schizophrenia” (Warner Lambert Company LLC, priority 2003, dated 2007)

biological target: D2 receptor (Homo sapiens, UniProt P14416); assay: [3H]Thymidine uptake assay for D2 intrinsic activity; type: cell-based; conditions: Table 1; test compound 1 μM; 1 μM Quinpirole = 100% intrinsic activity
Sequence (P14416 whole entry): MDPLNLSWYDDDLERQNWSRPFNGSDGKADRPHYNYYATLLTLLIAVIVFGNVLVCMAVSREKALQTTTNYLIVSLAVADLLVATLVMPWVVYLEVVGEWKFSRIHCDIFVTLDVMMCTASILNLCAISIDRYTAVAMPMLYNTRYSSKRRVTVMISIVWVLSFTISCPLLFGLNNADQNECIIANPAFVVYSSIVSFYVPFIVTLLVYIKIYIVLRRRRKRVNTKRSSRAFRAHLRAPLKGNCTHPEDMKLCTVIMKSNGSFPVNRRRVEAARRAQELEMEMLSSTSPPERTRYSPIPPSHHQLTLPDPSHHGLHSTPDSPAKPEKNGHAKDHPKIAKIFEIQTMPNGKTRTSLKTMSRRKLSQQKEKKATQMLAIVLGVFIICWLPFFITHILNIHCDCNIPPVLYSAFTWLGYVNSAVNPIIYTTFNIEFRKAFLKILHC

| SMILES | Emax at 1 µM |
| --- | --- |
| O=C1CCc2ccc(CCCCCN3CCN(c4ccc(F)c(Cl)c4Cl)CC3)nc2N1 [Example C11, 7-{5-[4-(2,3-Dichloro-4-fluoro-phenyl)-piperazin-1-yl]-pentyl}-3,4-dihydro-1H-[1,8]naphthyridin-2-one] | 7% |
| CCc1c(Cl)cccc1N1CCN(CCCCOc2ccc3c(n2)NC(=O)CC3)CC1 [Example A29, 7-{4-[4-(3-Chloro-2-ethyl-phenyl)-piperazin-1-yl]-butoxy}-3,4-dihydro-1H-[1,8]naphthyridin-2-one] | 20% |
| O=C1CCc2ccc(CCCCCN3CCN(c4ccc(F)cc4Cl)CC3)nc2N1 [Example C14, 7-{5-[4-(2-Chloro-4-fluoro-phenyl)-piperazin-1-yl]-pentyl}-3,4-dihydro-1H-[1,8]naphthyridin-2-one] | 10% |
| COc1cccc(N2CCN(CCCCOc3ccc4ccc(=O)[nH]c4n3)CC2)c1C [Example B27, 7-{4-[4-(3-Methoxy-2-methyl-phenyl)-piperazin-1-yl]-butoxy}-1H-[1,8]naphthyridin-2-one] | 47% |
| CC(C)COc1ccccc1N1CCN(CCCCOc2ccc3c(n2)NC(=O)CC3(C)C)CC1 [Example D24, 7-{4-[4-(2-Isobutoxy-phenyl)-piperazin-1-yl]-butoxy}-4,4-dimethyl-3,4-dihydro-1H-[1,8]naphthyridin-2-one] | 32% |
| O=C1CCc2c(C(F)(F)F)cc(OCCCCN3CCN(c4cccc5ccccc45)CC3)nc2N1 [Example E14, 7-[4-(4-Naphthalen-1-yl-piperazin-1-yl)-butoxy]-5-trifluoromethyl-3,4-dihydro-1H-[1,8]naphthyridin-2-one] | 36% |
| CC1(C)OC(=O)Nc2cc(CCCCCN3CCN(c4cccc(Cl)c4Cl)CC3)ncc21 [Example I19, 7-{5-[4-(2,3-Dichloro-phenyl)-piperazin-1-yl]-pentyl}-4,4-dimethyl-1,4-dihydro-pyrido[4,3-d][1,3]oxazin-2-one] | 22% |
| O=C1CCc2cccc(N3CCN(CCCCOc4ccc5c(n4)NC(=O)CC5)CC3)c2C1 [Example A56, 7-{4-[4-(7-Oxo-5,6,7,8-tetrahydro-naphthalen-1-yl)-piperazin-1-yl]-butoxy}-3,4-dihydro-1H-[1,8]naphthyridin-2-one] | 29% |
| O=c1ccc2ccc(OCCCCN3CCN(c4cccc5cc(Cl)ccc45)CC3)nc2[nH]1 [Example B57, 7-{4-[4-(6-Chloro-naphthalen-1-yl)-piperazin-1-yl]-butoxy}-1H-[1,8]naphthyridin-2-one] | 21% |
| O=C1CCc2cc(F)c(OCCCCN3CCN(c4cccc5c4CCC5)CC3)nc2N1 [Example E5, 6-Fluoro-7-[4-(4-indan-4-yl-piperazin-1-yl)-butoxy]-3,4-dihydro-1H-[1,8]naphthyridin-2-one] | 21% |
| COc1ccnc(N2CCN(CCCCOc3ccc4ccc(=O)[nH]c4n3)CC2)n1 [Example B31, 7-{4-[4-(4-Methoxy-pyrimidin-2-yl)-piperazin-1-yl]-butoxy}-1H-[1,8]naphthyridin-2-one] | 76% |
| O=C1CCc2cnc(CCCCCN3CCN(c4cccc(Cl)c4Cl)CC3)cc2N1 [Example I1, 7-{5-[4-(2,3-Dichloro-phenyl)-piperazin-1-yl]-pentyl}-3,4-dihydro-1H-[1,6]naphthyridin-2-one] | 17% |
| O=c1ccc2ccc(OCCCCN3CCN(c4cccc5c4CCCC5)CC3)nc2[nH]1 [Example B33, 7-{4-[4-(5,6,7,8-Tetrahydro-naphthalen-1-yl)-piperazin-1-yl]-butoxy}-1H-[1,8]naphthyridin-2-one] | 26% |
| CC(C)Oc1ccc(Cl)cc1N1CCN(CCCCOc2ccc3c(n2)NC(=O)CC3)CC1 [Example A25, 7-{4-[4-(5-Chloro-2-isopropoxy-phenyl)-piperazin-1-yl]-butoxy}-3,4-dihydro-1H-[1,8]naphthyridin-2-one] | 27% |
| O=c1ccc2cnc(OCCCCN3CCN(c4cccc5c4CCC5)CC3)nc2[nH]1 [Example H3, 2-[4-(4-Indan-4-yl-piperazin-1-yl)-butoxy]-8H-pyrido[2,3-d]pyrimidin-7-one] | 25% |
| Cc1nc(OCCCCN2CCN(c3cccc4ccc(F)cc34)CC2)nc2c1ccc(=O)n2C [Example H13, 2-{4-[4-(7-Fluoro-naphthalen-1-yl)-piperazin-1-yl]-butoxy}-4,8-dimethyl-8H-pyrido[2,3-d]pyrimidin-7-one] | 36% |
| O=c1ccc2ccc(OCCCCN3CCN(c4c(F)ccc5ccccc45)CC3)nc2[nH]1 [Example B54, 7-{4-[4-(2-Fluoro-naphthalen-1-yl)-piperazin-1-yl]-butoxy}-1H-[1,8]naphthyridin-2-one] | 15% |
| CC(C)(CCCN1CCN(c2cccc3ccccc23)CC1)Oc1ccc2c(n1)NC(=O)CC2 [Example C8, 7-[1,1-Dimethyl-4-(4-naphthalen-1-yl-piperazin-1-yl)-butoxy]-3,4-dihydro-1H-[1,8]naphthyridin-2-one] | 33% |
| CC1(C)CC(=O)Nc2nc(OCCCCN3CCN(c4cccc5c4CCC5)CC3)ccc21 [Example D19, 7-[4-(4-Indan-4-yl-piperazin-1-yl)-butoxy]-4,4-dimethyl-3,4-dihydro-1H-[1,8]naphthyridin-2-one] | 39% |
| O=C1CCc2ccc(OCCCCN3CCN(c4ccc(F)cc4)CC3)nc2N1 [Example A40, 7-{4-[4-(4-Fluoro-phenyl)-piperazin-1-yl]-butoxy}-3,4-dihydro-1H-[1,8]naphthyridin-2-one] | 32% |
| O=C1CCc2ccc(OCCCCN3CCN(c4cc(F)cc5c4CCCC5)CC3)nc2N1 [Example A50, 7-{4-[4-(3-Fluoro-5,6,7,8-tetrahydro-naphthalen-1-yl)-piperazin-1-yl]-butoxy}-3,4-dihydro-1H-[1,8]naphthyridin-2-one] | 14% |

same assay, conditions: Table 2; test compound 1 μM; 1 μM Quinpirole = 100% intrinsic activity

| SMILES | Emax at 1 µM |
| --- | --- |
| CC1(C)CC(=O)Nc2nc(OCCCCN3CCN(c4cccc5c4NC(=O)CC5)CC3)ccc21 [Example C3′, 4,4-Dimethyl-7-{4-[4-(2-oxo-1,2,3,4-tetrahydro-quinolin-8-yl)-piperazin-1-yl]-butoxy}-3,4-dihydro-1H-[1,8]naphthyridin-2-one] | 19% |
| CC1(C)CCc2cccc(N3CCN(CCCCOc4ccc5ccc(=O)[nH]c5n4)CC3)c2O1 [Example B3′, 7-{4-[4-(2,2-Dimethyl-chroman-8-yl)-piperazin-1-yl]-butoxy}-1H-[1,8]naphthyridin-2-one] | 50% |
| O=C1CCc2ccc(OCCCCN3CCN(c4cccc5c4OCCO5)CC3)nc2N1 [Example A16′, 7-{4-[4-(2,3-Dihydro-benzo[1,4]dioxin-5-yl)-piperazin-1-yl]-butoxy}-3,4-dihydro-1H-[1,8]naphthyridin-2-one] | 15% |
| O=c1ccc2cnc(OCCCCN3CCN(c4cccc5cccnc45)CC3)nc2[nH]1 [Example G3′, 2-[4-(4-Quinolin-8-yl-piperazin-1-yl)-butoxy]-8H-pyrido[2,3-d]pyrimidin-7-one] | 28% |
| O=C1CCc2ccc(OCCCCN3CCN(c4cccc5c4CCCO5)CC3)nc2N1 [Example A13′, 7-[4-(4-Chroman-5-yl-piperazin-1-yl)-butoxy]-3,4-dihydro-1H-[1,8]naphthyridin-2-one] | 14% |
| CC1(C)COc2c(cccc2N2CCN(CCCCOc3ccc4ccc(=O)[nH]c4n3)CC2)C1=O [Example B16′, 7-{4-[4-(3,3-Dimethyl-4-oxo-chroman-8-yl)-piperazin-1-yl]-butoxy}-1H-[1,8]naphthyridin-2-one] | 4% |
| O=C1CCc2ccc(OCCCCN3CCN(c4cccc5c4OC4(C=C5)CCCC4)CC3)nc2N1 [Example A7′, 7-{4-[4-(Spiro[chromene-2,1′-cyclopentan]-8-yl)-piperazin-1-yl]-butoxy}-3,4-dihydro-1H-[1,8]naphthyridin-2-one] | 34% |
| CC1(C)CCc2cccc(N3CCN(CCCCOc4ncc5ccc(=O)[nH]c5n4)CC3)c2O1 [Example G6′, 2-{4-[4-(2,2-Dimethyl-chroman-8-yl)-piperazin-1-yl]-butoxy}-8H-pyrido[2,3-d]pyrimidin-7-one] | 17% |
| CCN1CCCc2c1cccc2N1CCN(CCCCOc2ccc3ccc(=O)[nH]c3n2)CC1 [Example B29′, 7-{4-[4-(1-Ethyl-1,2,3,4-tetrahydro-quinolin-5-yl)-piperazin-1-yl]-butoxy}-1H-[1,8]naphthyridin-2-one] | 26% |
| O=C1CCc2ccc(OCCCCN3CCN(c4cccc5c4OC(F)(F)O5)CC3)nc2N1 [Example A19′, 7-{4-[4-(2,2-Difluoro-benzo[1,3]dioxol-4-yl)-piperazin-1-yl]-butoxy}-3,4-dihydro-1H-[1,8]naphthyridin-2-one] | 40% |
| Cc1cc2c(N3CCN(CCCCOc4ccc5c(n4)NC(=O)CC5)CC3)cccc2[nH]1 [Example A27′, 7-{4-[4-(2-Methyl-1H-indol-4-yl)-piperazin-1-yl]-butoxy}-3,4-dihydro-1H-[1,8]naphthyridin-2-one] | 21% |
| O=C1CCc2ccc(OCCCCN3CCN(c4cccc5ccncc45)CC3)nc2N1 [Example A36′, 7-[4-(4-Isoquinolin-8-yl-piperazin-1-yl)-butoxy]-3,4-dihydro-1H-[1,8]naphthyridin-2-one] | 62% |
| CC1(C)C=Cc2cccc(N3CCN(CCCCOc4ccc5ccc(=O)[nH]c5n4)CC3)c2O1 [Example B2′, 7-{4-[4-(2,2-Dimethyl-2H-chromen-8-yl)-piperazin-1-yl]-butoxy}-1H-[1,8]naphthyridin-2-one] | 33% |
| O=C1CCc2ccc(OCCCCN3CCN(c4cccc5c4NC(=O)CC5)CC3)nc2N1 [Example A48′, 7-{4-[4-(2-Oxo-1,2,3,4-tetrahydro-quinolin-8-yl)-piperazin-1-yl]-butoxy}-3,4-dihydro-1H-[1,8]naphthyridin-2-one] | 34% |
| CC1(C)CC(=O)Nc2nc(OCCCCN3CCN(c4cccc5ccc(=O)[nH]c45)CC3)ccc21 [Example C4′, 4,4-Dimethyl-7-{4-[4-(2-oxo-1,2-dihydro-quinolin-8-yl)-piperazin-1-yl]-butoxy}-3,4-dihydro-1H-[1,8]naphthyridin-2-one] | 21% |
